Reference: US20250345350A1, “TREATING PAIN ASSOCIATED WITH CENTRAL SENSITIZATION” (Medicon Pharmaceuticals, Inc., priority 2022, published 2025)
Like-named read-outs stand apart in the source and are kept apart here.

Legend:
[1] = system: NTG-induced chronic migraine in mice; assay: PWT (von Frey), NTG-induced chronic migraine model, oral (Example 16)
Procedure: In particular, mice receive sublingual NTG 0.4 mg in the form of a finely crushed 0.4 mg NTG tablet (Greenstone Brand) every two days, receiving a total of five doses. For control mice, an NTG placebo (Practi-Nitroglycerin Sublingual 0.4 mg Simulated Medication tablet) was administered in the same way.
Group 1: placebo NTG (i.e, no NTG treatment, n=8) • 2. Group 2: NTG (n=8) • 3. Group 3: NTG+vehicle (n=8) • 4. […] Group 5: NTG+sulindac (n=8)
Mechanical allodynia was determined using von Frey filaments in line with that performed in the earlier Examples. The PWT test was performed prior to NTG (or placebo NTG) administration to determine baseline values, as indicated. […] The mechanical threshold, expressed as g, indicates the force of the von Frey filament to which the animal reacted.

[2] = system: paclitaxel-induced central sensitization in C57/BL/6J mice; conditions: day 14; PS hydrogel 5% or 0.7% sulindac 3 times a day; 5% lidocaine cream once 30 min before; pregabalin 10 mg/kg orally once 1 h before
Procedure: Regarding the treatment with lidocaine: 5% lidocaine cream (a positive control) was applied once to both hind paws of the mice 30 minutes before measurement of PWT.
Briefly, for mechanical allodynia, pain threshold responses were measured using the well-established method of von Frey filaments in line with that performed in the earlier Examples. The PWT test was performed on day-8 (before the first dose of paclitaxel), the day of starting treatment (day 0, at which central sensitization was fully established) and day 14 (treatment continued until day 15). The mechanical threshold, expressed as g, indicates the force of the von Frey filament to which the animal reacted.

[3] = system: PHN induced by HSV-1 KOS strain virus in BALB/c mice; assay: PWT (von Frey), HSV-1 mouse model of PHN, topical (Example 20); type: in vivo; conditions: Post-inoculation and treatment, sulindac 5% gel on both hind paws three times a day for three days
Procedure: PHN was induced in mice by infecting them with the HSV-1 KOS strain virus and following established protocols (Ou et al, Front Immunol, 14, 1026269, 2023; Takasaki et al, Anesthesiology, 96(5), 1168-74, 2002).
; Reckitt Benckiser). Three days later, HSV-1 (10^6 PFUs in 20 μl PBS) was inoculated on the shin of the right hind paw (5×5 mm) after scarification with sandpaper. The virus was applied directly to the scarified area. The contralateral hind paw was without inoculation. Mock infection was performed using the same virus inactivated by heating at 60° C. for 1 h.
. Group 1: sham inoculated (n=5-7) • 2.
In a second experiment, the effect of the parent compound, sulindac, was tested in the same mouse model. Five days post-inoculation, sulindac (as a 5% gel), or vehicle control were administered topically onto both hind paws of mice three times a day for three days.
. Group 1: vehicle control (n=5-7) • 2. Group 2: sulindac 5% (n=5-7)

[4] = Pharmacokinetics and biodistribution after 3% PS gel on outer surface of eyelid (Example 26); type: in vivo, rabbit; conditions: rabbits, 3% PS gel on outer surface of upper eyelids; for AUC(0-t): read-out: AUC0-24 h; for concentration at 0.5 h / concentration at 1 h / concentration at 2 h / concentration at 4 h / concentration at 8 h / concentration at 24 h: topical, read-out: Amount in tissue, Mean ± SEM
Procedure: The pharmacokinetics and biodistribution of 3% PS gel applied to the outer surface of both upper eyelids was studies in male New Zealand White rabbits.
Eyelid and tissues of the globe were dissected and frozen quickly in liquid nitrogen until the levels of PS and its metabolites were determined by HPLC as described Xie et al. (Br J Pharmacol (2012);165:2152-66).

[5] = system: NTG-induced migraine in C57BL/6J mice; assay: PWT (von Frey), NTG-induced migraine mouse model, topical (Example 13)
Procedure: Specifically, instead of the intraperitoneal injection of NTG, a finely crushed 0.4 mg NTG tablet (Greenstone Brand) was administered sublingually. As a control, a Practi-Nitroglycerin Sublingual 0.4 mg Simulated Medication tablet was used.
For determining mechanical allodynia, pain threshold responses were measured using the well-established method of von Frey filaments in line with that performed in the earlier Examples.
The PWT test, assessing mechanical allodynia, was performed 30 minutes after treatment. The mechanical threshold, expressed as g, indicates the force of the von Frey filament to which the animal reacted.

[6] = Pharmacokinetics and biodistribution after topical PS 8% ointment to hind paws (Example 25); type: in vivo, mouse; conditions: all tissues except the sciatic nerve (higher) and DRG (equal)
Procedure: At 0.5, 1, 3, 5, 12, 18, and 24 h, mice (n=4-5 mice/time point) were euthanized with CO2 inhalation. Blood was drawn immediately after death. Tissues, including paw skin, paw muscle, leg muscle, the sciatic nerve and lumbar DRG bilaterally were dissected quickly, immediately frozen in liquid nitrogen and stored at −80° C. until analyzed.

[7] = system: STZ-induced central sensitization in Sprague-Dawley rats; assay: PWT (von Frey), streptozotocin rat model of central sensitization (Example 4); type: in vivo; conditions: 0.7% sulindac hydrogel 3 times a day for 1 week; 5% lidocaine cream once 30 min before; pregabalin 10 mg/kg orally once 1 h before
Procedure: Sprague-Dawley rats were fasted for 4-6 hours before being injected intraperitoneally with 45 mg/kg STZ. This was performed for all experimental groups, except the naive group. In order to prevent hypoglycaemic death, rats received 10% sucrose water as the sole water source for the first 48 hours after injection. In order to ensure only those rats considered diabetic (i.e., having non-fasting plasma glucose levels of >250 mg/dL) were included in the study, blood glucose was measured at 72 hours after the STZ injection.
Four weeks after STZ injection, the rats were randomised into treatment groups. This delay between STZ injection and treatment allows the establishment of chronic pain (allodynia) associated with central sensitization. […] 5% lidocaine cream (positive control) was applied only once to both hind paws of the rats 30 minutes before measurement of PWT.
The rats were split into 8 study groups, with those in the experimental groups (1-4) having an average body weight of about 225 g, and those in the control groups (5-8) having an average body weight of about 335 g, as follows: • 1. Group 1: naive rats (n=5) • 2. Group 2: STZ only (n=6) • 3. Group 3: STZ plus vehicle (n=6) • 4. […] Group 5: STZ plus oral vehicle (n=8) • 6. Group 6: STZ plus 0.7% sulindac hydrogel (n=7) • 7. Group 7: STZ plus 5% lidocaine cream (n=8) • 8.

[8] = PS and metabolites in proximal and distal half of the sciatic nerve (Example 25); type: in vivo, mouse; conditions: sciatic nerve halves, 30 min after last dose
Procedure: In a separate experiment we studied 8 mice with paclitaxel-induced PN treated with PS 8% ointment 3×/d for 2 wks. Mice were euthanized as above 30 minutes after the last dose of PS. From these mice we harvested both sciatic nerves dividing each into proximal and distal halves, and combined the corresponding halves of every two animals for assay of drug levels.

[9] = male, New Zealand White, rabbit, topical or ocular, conjunctiva
[10] = male, New Zealand White, rabbit, topical or ocular, cornea
[11] = male, New Zealand White, rabbit, topical or ocular, eyelid
[12] = male, New Zealand White, rabbit, AH (aqueous humor)
[13] = male, New Zealand White, rabbit, conjunctiva
[14] = male, New Zealand White, rabbit, cornea
[15] = male, New Zealand White, rabbit, eyelid
[16] = male, New Zealand White, rabbit, vitreous

CC1=C(CC(=O)O)c2cc(F)ccc2/C1=C\c1ccc([S+](C)[O-])cc1 (centres unmarked) [sulindac]
PWT, g Mean ± SEM ([1]; Baseline, prior to NTG administration): 1.80 ± 0.12 g | PWT, g Mean ± SEM ([1]; Day 11, orally once a day for 11 days concurrent with NTG, PS 50 mg/kg, sulindac 33 mg/kg): 0.43 ± 0.03 g | PWT, g Mean ± SEM [2]: 0.62 ± 0.05 g | PWT, g Mean ± SEM [3]: 0.56 ± 0.06 g | PWT, g Mean ± SEM ([3]; listed as Sulindac): 0.56 ± 0.06 g | Tmax ([4]; eyelid): 1 h | Cmax [4, 9]: 800 nM | AUC(0-t) [4, 9]: 2.5 ± 0.3 µM·h | Tmax ([4]; male, New Zealand White, rabbit, topical or ocular, conjunctiva, read-out: TMax): 8 h | Cmax [4, 10]: 600 nM | half-life [4, 10]: 7.4 h | AUC(0-t) [4, 10]: 2.4 ± 0.5 µM·h | Cmax [4, 11]: 3600 nM | half-life [4, 11]: 1.1 h | AUC(0-t) [4, 11]: 5.5 ± 0.8 µM·h | concentration at 0.5 h [4, 12]: 0 nM | concentration at 1 h [4, 12]: 0 nM | concentration at 2 h [4, 12]: 0 nM | concentration at 4 h [4, 12]: 0 nM | concentration at 8 h [4, 12]: 0 nM | concentration at 24 h [4, 12]: 0 nM | concentration at 0.5 h [4, 13]: 100 ± 100 nM | concentration at 1 h [4, 13]: 200 ± 100 nM | concentration at 2 h [4, 13]: 0 nM | concentration at 4 h [4, 13]: 100 ± 100 nM | concentration at 8 h [4, 13]: 800 ± 500 nM | concentration at 24 h [4, 13]: 0 nM | concentration at 0.5 h [4, 14]: 400 ± 200 nM | concentration at 1 h [4, 14]: 600 ± 100 nM | concentration at 2 h [4, 14]: 0 nM | concentration at 4 h [4, 14]: 300 ± 100 nM | concentration at 8 h [4, 14]: 200 ± 200 nM | concentration at 24 h [4, 14]: 0 nM | concentration at 0.5 h [4, 15]: 1000 ± 100 nM | concentration at 1 h [4, 15]: 3600 ± 1200 nM | concentration at 2 h [4, 15]: 0 nM | concentration at 4 h [4, 15]: 500 ± 200 nM | concentration at 8 h [4, 15]: 0 nM | concentration at 24 h [4, 15]: 0 nM | concentration at 0.5 h [4, 16]: 0 nM | concentration at 1 h [4, 16]: 0 nM | concentration at 2 h [4, 16]: 0 nM | concentration at 4 h [4, 16]: 0 nM | concentration at 8 h [4, 16]: 0 nM | concentration at 24 h [4, 16]: 0 nM | PWT Post-treatment Mean ± SEM ([5]; 30 min after treatment, PS 8% gel or sulindac 5.3% (in DMSO) on both hind paws 30 min after NTG): 0.55 ± 0.02 g | PWT Baseline Mean ± SEM ([5]; baseline of the group, before NTG and treatment): 1.43 ± 0.15 g | sulindac levels relative to those of PS [6]: around 25% | PWT, gm Mean ± SEM [7]: 23.2 ± 2.6 gm | Fold difference (distal vs proximal) [8]: 8.5 fold
